# Source: patent US20150133456A1, “FLUOROERGOLINE DERIVATIVES AND USES THEREOF” (MAP PHARMACEUTICALS, INC., priority 2012, published 2015)
# Molecular target: human 5-HT1D receptor (Homo sapiens, UniProt P28221)
# Assay: GTPγS agonist assay, 5-HT1D
# Assay type: biochemical
# Experimental: The mixture was shaken for 2 minutes prior to a 60 min incubation. It was then centrifuged for 10 minutes and counted for 1 minute with a Perkin Elmer TopCount reader. The resulting emission of light was recorded using a luminometer. Agonist percentage activation determinations were obtained by comparing with the Emax of the reference agonist α-methyl-5-HT.
# human 5-HT1D receptor, sequence (P28221 whole entry): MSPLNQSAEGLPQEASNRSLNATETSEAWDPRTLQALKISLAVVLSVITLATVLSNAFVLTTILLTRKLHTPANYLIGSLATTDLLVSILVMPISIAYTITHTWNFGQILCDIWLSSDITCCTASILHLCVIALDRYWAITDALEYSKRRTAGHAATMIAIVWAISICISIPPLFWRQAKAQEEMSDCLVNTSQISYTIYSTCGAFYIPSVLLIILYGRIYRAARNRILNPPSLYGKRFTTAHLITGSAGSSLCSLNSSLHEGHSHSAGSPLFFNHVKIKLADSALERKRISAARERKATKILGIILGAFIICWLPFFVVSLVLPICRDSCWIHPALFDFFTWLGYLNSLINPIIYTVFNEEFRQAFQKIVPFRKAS
compound,measurement,value
CN1C[C@H](C(=O)N[C@]2(C)O[C@@]3(O)[C@@H]4CCCN4C(=O)[C@H](Cc4ccccc4)N3C2=O)CC2c3cccc4[nH]c(C(F)(F)F)c(c34)CC21 (stereo partly shown) [2-CF3-dihydroergotamine],EC50,13.6 nM
